From patent US8242082B2, “Antibacterial peptide” (Seikagaku Corporation, priority 2004, dated 2012) come the findings set out here.

Assay [1] has as its system E. coli, S. aur, MSSA, and MRSA. Kind of assay: Determination of antibacterial (bacteriocidal) effect, Alamar Blue. Format: cell-based, Escherichia coli; Staphylococcus aureus. The settings on record: for antibacterial effect: gram-negative and gram-positive bacteria, 37° C. for six hours, absorbance difference with Alamar Blue; for antibacterial effect, comparison among test substances: relative ranking from the figures. As for the experimental part: Each of E. coli, S. aur, MSSA, and MRSA was subjected to shaking culture overnight at 37° C. by use of a Muller-Hinton medium (product of DIFCO), and the cells precipitated through centrifugation were separated and washed with a Phenol Red-free RPMI 1640 medium. Strains of E. coli, S. aur, MSSA, and MRSA were prepared so that the cell concentrations were adjusted to 1×10^8 CFU/mL, 2×10^8 CFU/mL, 2×10^8 CFU/mL, and 2×10^8 CFU/mL, respectively, the concentrations being determined from the corresponding absorbance values at 650 nm by means of a spectrophotometer.
By use of a 96-well plate, each cell suspension (1×10^6 CFU/mL) (100 μL), a test substance (10 μL), an RPMI 1640 medium (70 μL), and an Alamar Blue reagent (product of BIOSOURCE) (20 μL) were admixed. In the presence of Alamar Blue, pink fluorescence attributed to live cells is observed, whereas the admixture remains blue when the cells are dead.
Each admixture was incubated at a constant temperature of 37° C. for six hours, and the difference between absorbance at 560 nm and that at 595 nm was obtained.
The procedure of the aforementioned <2-1> was repeated, except that 1-18, 1-18m, and 1-18 m2 were tested and the difference between absorbance at 550 nm and that at 590 nm was measured, to thereby determine the antibacterial effect of the test substances with respect to each of E. coli, S. aur, MSSA, and MRSA. […] In FIG. 6, the test results of 1-18 are represented by “CAP11,” and the black dots, white dots, black squares, and white squares denote the antibacterial effects to E. coli, S. aur, MSSA, and MRSA, respectively (X-axis: test substance concentration, Y-axis: difference between absorbance at 550 nm and that at 590 nm).

Assay [2] deals with binding between LPS and RAW 246.7 cells. In words: Determination of LPS-cell-binding inhibitory effect (Alexa 488-labeled LPS, FACS). Format: cell-based. The settings on record: for LPS-cell-binding inhibitory effect: RAW 246.7 cells, Alexa 488-labeled LPS 100 ng/mL; for LPS-cell-binding inhibitory effect, comparison among test substances: relative ranking from the figures. As for the experimental part: RAW 246.7 cells (macrophage cell strain) were cultured by use of an RPMI 1640 medium containing 10% FCS and collected. The collected cells were diluted with the same medium so that the cell concentration was adjusted to 5×10^5/mL. To the diluted liquid (500 μL), a test substance (5 μL) was added, and the mixture was subjected to shaking culture at 37° C. for 10 minutes. Subsequently, LPS that had been labeled with Alexa 488 (final concentration: 100 ng/mL) was added to the culture, and the mixture was subjected to shaking culture at 37° C. for 15 minutes. The collected cells were washed with PBS (3 mL×2) and suspended again in PBS (300 μL). Binding of Alexa 488-labeled LPS was measured through FACS. Control samples (a sample containing no labeled LPS (background) and an antibacterial-peptide-free sample (maximum LPS binding degree) were treated similarly, and the degree of the inhibitory effect on binding between LPS and RAW 246.7 cells was determined on the basis of comparison with control samples.
In a manner similar to that of the aforementioned <2-2>, the LPS-cell-binding inhibitory effect of the same test substances was determined. […] In FIG. 7, the test results of 1-18, 1-18m, and 1-18 m2 are represented by white dots, black dots, and black squares, respectively (X-axis: test substance concentration, Y-axis: percent binding of LPS to cells).

The test system of assay [3] is Candida albicans (CA53133 strain). In words: Determination of antibacterial (bacteriocidal) effect (antifungal effect) to fungi, Alamar Blue. Format: cell-based. The following applies: for antibacterial (bacteriocidal) effect to fungi: Candida albicans, 35° C. for fourteen hours. As for the experimental part: Candida albicans (CA53133 strain) was grown in Sabouraud dextrose agar. Colonies formed in the agar were collected and suspended to serum-free and Phenol Red-free RPM11640 liquid medium (SIGMA). The concentration of cells in the medium was determined from the corresponding absorbance value at 550 nm by means of spectrophotometer, and the concentration is adjusted to 0.5−2.5×10^4 CFU/mL. By use of a 96-well plate, each cell suspension (0.5-2.5×10^4 CFU/mL) (20 μL), a test substance (CAP11, 1-18 or 1-18 m2) (10 μL), an RPMI 1640 liquid medium (150 μL), and an Alamar Blue reagent (product of BIOSOURCE) (20 μL) were admixed. Each admixture was incubated at a constant temperature of 35° C. for fourteen hours, and the difference between absorbance at 550 nm and that at 595 nm was obtained.

“Also recorded” adds a separate entry of the source. No end group written: not given here.

“9-26: partial peptide, 9th to 26th amino acid residues of the CAP11 monomer”: the antibacterial effect entry in assay [1] was “exhibited an antibacterial effect”. In assay [2], the LPS-cell-binding inhibitory effect entry was “an LPS-cell-binding inhibitory effect”.
On the same counts, the results for “16-33: partial peptide, 16th to 33th amino acid residues of the CAP11 monomer (LGRKIGKTGRKVWKAWRE; A partial peptide of CAP11)” are “exhibited an antibacterial effect” and “an LPS-cell-binding inhibitory effect”.
GLRKKFRKTRKRIQKLGR [1-18]: in assay [1], the antibacterial effect result was “exhibited an antibacterial effect; also recorded: exhibit an antibacterial (bacteriocidal) effect” and the “antibacterial effect, comparison among test substances” value is “most potent antibacterial effect; also recorded: then 1-18”. Moreover, in assay [2], the LPS-cell-binding inhibitory effect result is recorded as “exhibit an LPS-cell-binding inhibitory effect” and the “LPS-cell-binding inhibitory effect, comparison among test substances” value is given as “most potent; also recorded: then 1-18”. Also, the “antibacterial (bacteriocidal) effect to fungi” value (shortened to “antibacterial … to fungi”) in assay [3] is listed as “exhibit an antibacterial (bacteriocidal) effect to fungi”.
Take GLRKLFRKLLKLIQKLLR [1-18m]: the antibacterial effect result in assay [1] was “exhibit an antibacterial (bacteriocidal) effect”. In addition, the LPS-cell-binding inhibitory effect entry in assay [2] is on record as “exhibit an LPS-cell-binding inhibitory effect”.
Consider “KLRKLFRKLLKLIRKLLR [1-18 m2, synthesized and substituted form of CAP11 (1-18)]”, for which, in assay [1], the antibacterial effect result was “exhibit an antibacterial (bacteriocidal) effect” and the “antibacterial effect, comparison among test substances” value is “strongest antibacterial effect”. Moreover, in assay [2], the LPS-cell-binding inhibitory effect entry is listed as “exhibit an LPS-cell-binding inhibitory effect” and the “LPS-cell-binding inhibitory effect, comparison among test substances” value is on record as “strongest effect”. For the same substance, the “antibacterial … to fungi” value in assay [3] is reported as “exhibit an antibacterial (bacteriocidal) effect to fungi”. For the same substance, the “antifungal effect, comparison among test substances” value in assay [3] (relative ranking from FIG. 8) is “strongest antifungal effect”.
Turning to “monomer: CAP11 monomer having 43 amino acid units and no cysteine disulfide bond (GLRKKFRKTRKRIGKLGRKIGKTGRKVWKAWREYGQIPYPCRI; A partial peptide of CAP11) [reference compound]”, the antibacterial effect entry in assay [1] is “exhibited an antibacterial effect”. In addition, in assay [2], the LPS-cell-binding inhibitory effect entry is on record as “an LPS-cell-binding inhibitory effect” and the “LPS-cell-binding inhibitory effect, comparison among test substances” value is recorded as “No significant difference”. For the same substance, the “antibacterial … to fungi” value in assay [3] was “exhibit an antibacterial (bacteriocidal) effect to fungi”.
